Test results from patent US9433622B2, “Pyrimidine compounds useful in the treatment of diseases mediated by IKKE and/or TBK1 mechanisms” (DOMAINEX LIMITED, priority 2013, dated 2016).

Assays:
[1] = mice models of obesity; cited from earlier work
[2] = target: IKKε (Homo sapiens (Human), UniProt Q14164); test: Lanthascreen TR-FRET kinase inhibition assay, IKKε; assay type: biochemical; settings: 20 μM ATP (apparent Km), 2 nM kinase, 1 h
Summary of the method: (§1)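 TR-FRET: terbium phosphospecific antibody detects phosphorylation of 400 nM fluorescein-IkBα peptide, 20 μM ATP, 20 °C, HEPES pH 7.5 with 3% DMSO. IKKε at 2 nM, 1 h reaction; TBK1 at 8 nM, 2.5 h reaction; started by kinase addition.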

[3] = target: TBK1 (Homo sapiens (Human), UniProt Q9UHD2); test: Lanthascreen TR-FRET kinase inhibition assay, TBK1; assay type: biochemical; settings: 20 μM ATP (apparent Km), 8 nM kinase, 2.5 h
Sequence of TBK1 (Q9UHD2 whole entry): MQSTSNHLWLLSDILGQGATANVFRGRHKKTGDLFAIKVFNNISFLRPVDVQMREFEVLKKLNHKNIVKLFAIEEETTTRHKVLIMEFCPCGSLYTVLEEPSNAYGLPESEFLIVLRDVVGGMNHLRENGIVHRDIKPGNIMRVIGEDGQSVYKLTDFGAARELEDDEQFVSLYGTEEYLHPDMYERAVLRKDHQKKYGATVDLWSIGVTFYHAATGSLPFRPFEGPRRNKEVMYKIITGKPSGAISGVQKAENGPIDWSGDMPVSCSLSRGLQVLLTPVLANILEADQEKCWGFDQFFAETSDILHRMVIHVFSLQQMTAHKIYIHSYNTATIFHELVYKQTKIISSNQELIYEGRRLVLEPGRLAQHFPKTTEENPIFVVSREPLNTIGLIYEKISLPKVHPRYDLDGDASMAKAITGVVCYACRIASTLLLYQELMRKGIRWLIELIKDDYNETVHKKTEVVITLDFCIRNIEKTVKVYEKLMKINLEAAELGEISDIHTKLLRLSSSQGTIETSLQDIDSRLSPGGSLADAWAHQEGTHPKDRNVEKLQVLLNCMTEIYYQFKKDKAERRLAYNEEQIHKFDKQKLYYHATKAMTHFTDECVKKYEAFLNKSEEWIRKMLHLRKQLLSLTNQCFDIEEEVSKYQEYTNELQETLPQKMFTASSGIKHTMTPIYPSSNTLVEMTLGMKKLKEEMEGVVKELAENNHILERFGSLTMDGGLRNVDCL
Summary of the method: as §1

Sequence of IKKε (Q14164 whole entry): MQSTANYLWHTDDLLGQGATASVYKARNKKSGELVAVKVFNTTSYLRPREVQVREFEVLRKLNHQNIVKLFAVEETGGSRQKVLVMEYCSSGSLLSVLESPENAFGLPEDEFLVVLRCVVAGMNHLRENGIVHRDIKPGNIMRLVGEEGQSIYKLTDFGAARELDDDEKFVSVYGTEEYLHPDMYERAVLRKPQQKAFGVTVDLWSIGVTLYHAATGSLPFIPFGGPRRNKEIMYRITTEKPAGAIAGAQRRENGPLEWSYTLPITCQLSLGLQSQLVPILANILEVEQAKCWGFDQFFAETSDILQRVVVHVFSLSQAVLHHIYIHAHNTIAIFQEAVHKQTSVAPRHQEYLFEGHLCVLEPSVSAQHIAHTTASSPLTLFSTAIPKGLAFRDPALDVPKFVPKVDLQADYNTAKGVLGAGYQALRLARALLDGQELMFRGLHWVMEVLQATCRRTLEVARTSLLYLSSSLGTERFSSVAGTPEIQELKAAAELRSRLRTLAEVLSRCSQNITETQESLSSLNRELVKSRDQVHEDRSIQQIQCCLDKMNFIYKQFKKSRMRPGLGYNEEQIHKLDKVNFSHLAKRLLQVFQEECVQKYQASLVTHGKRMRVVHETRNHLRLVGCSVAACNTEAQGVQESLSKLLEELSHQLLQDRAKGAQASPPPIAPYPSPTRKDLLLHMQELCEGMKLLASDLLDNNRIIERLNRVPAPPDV

Row | IC50 [2] | IC50 [3] | SMILES | blood glucose levels [1] | weight gain [1]
1 | < 30 nM | < 30 nM | N#Cc1cc(-c2ccnc(Nc3cnn(CCO)c3)n2)cnc1N1CCCC1 [DMX-36, 5-{2-[1-(2-Hydroxy-ethyl)-1H-pyrazol-4-ylamino]-pyrimidin-4-yl}-2-pyrrolidin-1-yl-nicotinonitrile] | – | –
2 | < 30 nM | < 30 nM | N#Cc1cc(-c2ccnc(Nc3ccnc(N4CCOCC4)c3)n2)cnc1N1CC[C@H](O)C1 [DMX-71, 2-((S)-3-Hydroxy-pyrrolidin 1-yl)-5-[2-(2-morpholin-4-yl-pyridin-4-ylamino)-pyrimidin-4-yl]-nicotinonitrile] | – | –
3 | < 15 nM | < 15 nM | N#Cc1cc(-c2ccnc(Nc3ccc4c(c3)CNC4)n2)cnc1N1CC[C@H](F)C1 [DMX-126, 5-[2-(2,3-Dihydro-1H-isoindol-5-ylamino)-pyrimidin-4-yl]-2-((S)-3-fluoro-pyrrolidin-1-yl)-nicotinonitrile] | – | –
4 | < 30 nM | < 100 nM | CC(C)(N)C(=O)Nc1ccc(Nc2nccc(-c3cnc(N4CC[C@H](F)C4)c(C#N)c3)n2)cn1 [DMX-62, 2-Amino-N-(5-{4-[5-cyano-6-((S)-3-fluoro-pyrrolidin-1-yl)-pyridin-3-yl]-pyrimidin-2-ylamino}-pyridin-2-yl)-2-methyl-propionamide] | – | –
5 | < 1000 nM | < 100 nM | Cn1cc(Nc2nccc(-c3cnc(N4CCC[C@H]4C#N)c(C#N)c3)n2)cn1 [DMX-42, 2-((S)-2-Cyano-pyrrolidin-1-yl)-5-[2-(1 methyl-1H-pyrazol-4-ylamino)-pyrimidin-4-yl]-nicotinonitrile] | – | –
6 | < 100 nM | < 30 nM | N#Cc1cc(-c2ccnc(Nc3ccc(N4CCOCC4)nc3)n2)cnc1N1CC[C@H](O)C1 [DMX-50, 2-((S)-3-Hydroxy-pyrrolidin-1-yl)-5-[2-(6-morpholin-4-yl-pyridin-3-ylamino)-pyrimidin-4-yl]-nicotinonitrile] | – | –
7 | < 15 nM | < 15 nM | N#Cc1cc(-c2ccnc(Nc3cnn(C4CCOCC4)c3)n2)cnc1N1CC[C@H](F)C1 [DMX-33, 2-((S)-3-Fluoro-pyrrolidin-1-yl)-5-{2-[1-(tetrahydro-pyran-4-yl)-1H-pyrazol-4-ylamino]-pyrimidin-4-yl}-nicotinonitrile] | – | –
8 | < 30 nM | < 100 nM | N#Cc1cc(-c2ccnc(Nc3cnc4c(c3)CNC4)n2)cnc1N1CC[C@H](F)C1 [DMX-109, 5-[2-(6,7-Dihydro-5H-pyrrolo[3,4-b]pyridin-3-ylamino)-pyrimidin-4-yl]-2-((S)-3-fluoro-pyrrolidin-1-yl)-nicotinonitrile] | – | –
9 | < 30 nM | < 30 nM | CC(C(=O)Nc1ccc(Nc2nccc(-c3cnc(N4CC[C@H](F)C4)c(C#N)c3)n2)cn1)N1CCOCC1 (stereo partly drawn) [DMX-32, N-(5-{4-[5-Cyano-6-((S)-3-fluoro-pyrrolidin-1-yl)-pyridin-3-yl]-pyrimidin-2-ylamino}-pyridin-2-yl)-2-morpholin-4-yl-propionamide] | – | –
10 | < 100 nM | < 1000 nM | N#Cc1cc(-c2ccnc(Nc3ccn[nH]3)n2)cnc1N1CC[C@H](F)C1 [DMX-64, 2-((S)-3-Fluoro-pyrrolidin-1-yl)-5-[2-(2H-pyrazol-3-ylamino)-pyrimidin-4-yl]-nicotinonitrile] | – | –
11 | < 30 nM | < 30 nM | N#Cc1cc(-c2ccnc(Nc3ccnc(NC(=O)CN4CCOCC4)c3)n2)cnc1N1CC[C@H](F)C1 [DMX-34, N-(4-{4-[5-Cyano-6-((S)-3-fluoro-pyrrolidin-1-yl)-pyridin-3-yl]-pyrimidin-2-ylamino}-pyridin-2-yl)-2-morpholin-4-yl-acetamide] | – | –

Continued, compound first:

Row | SMILES | IC50 [2] | IC50 [3] | blood glucose levels [1] | weight gain [1]
12 | CC(C)c1ccc2oc3nc(N)c(C(=O)O)cc3c(=O)c2c1 [Amlexanox] | – | – | lower blood glucose levels | reduce weight gain
13 | N#Cc1nc(-c2ccnc(Nc3ccc(CN4CCOCC4)nc3)n2)ccc1N1CC[C@H](O)C1 [DMX-144, 3-((S)-3-Hydroxy-pyrrolidin-1-yl)-6-[2-(6-morpholin-4-ylmethyl-pyridin-3-ylamino)-pyrimidin-4-yl]-pyridine-2-carbonitrile] | < 30 nM | < 30 nM | – | –
14 | N#Cc1nc(-c2ccnc(Nc3ccc(OCCN4CC[C@H](F)C4)nc3)n2)ccc1N1CC[C@H](F)C1 [DMX-147, 3-((S)-3-Fluoro-pyrrolidin-1-yl)-6-(2-{6-[2-((S)-3-fluoro-pyrrolidin-1-yl)-ethoxy]-pyridin-3-ylamino}-pyrimidin-4-yl)-pyridine-2-carbonitrile] | < 100 nM | < 30 nM | – | –
15 | N#Cc1cc(-c2ccnc(Nc3ccc(NC(=O)CN4CCOCC4)nc3)n2)cnc1N1CCCOCC1 [DMX-85, N-{5-[4-(5-Cyano-6-[1,4]oxazepan-4-yl-pyridin-3-yl)-pyrimidin-2-ylamino]-pyridin-2-yl}-2-morpholin-4-yl-acetamide] | < 100 nM | < 100 nM | – | –
16 | N#Cc1cc(-c2ccnc(Nc3ccc(N4CCOCC4)cc3)n2)cnc1N1CC[C@H](O)C1 [DMX-49, 2-((S)-3-Hydroxy-pyrrolidin-1-yl)-5-[2-(4-morpholin-4-yl-phenylamino)-pyrimidin-4-yl]-nicotinonitrile] | < 15 nM | < 15 nM | – | –
17 | COCCNc1ncc(-c2ccnc(Nc3ccc(NC4CCN(C)CC4)nc3)n2)cc1C#N [DMX-118, 2-(2-Methoxy-ethylamino)-5-{2-[6-(1-methyl-piperidin-4-ylamino)-pyridin-3-ylamino]-pyrimidin-4-yl}-nicotinonitrile] | < 1000 nM | < 1000 nM | – | –
18 | Cn1cc(Nc2nccc(-c3ccc(N4CCC(C(N)=O)CC4)c(C#N)n3)n2)cn1 [DMX-60, 2′-Cyano-6′-[2-(1-methyl-1H-pyrazol-4-ylamino)-pyrimidin-4-yl]-3,4,5,6-tetrahydro-2H-[1,3′]bipyridinyl-4-carboxylic acid amide] | < 100 nM | < 100 nM | – | –
19 | Cn1cc(Nc2nccc(-c3cnc(N4C5CCC4COC5)c(C#N)c3)n2)cn1 [DMX-45, 5-[2-(1-Methyl-1H-pyrazol-4-ylamino)-pyrimidin-4-yl]-2-(3-oxa-8-aza-bicyclo[3.2.1]oct-8-yl)-nicotinonitrile] | < 100 nM | < 100 nM | – | –
20 | CC1CN(c2ncc(-c3ccnc(Nc4ccc(CN5CCOCC5)nc4)n3)cc2C#N)CCO1 (stereo not drawn) [DMX-159, 2-(2-Methyl-morpholin-4-yl)-5-[2-(6-morpholin-4-ylmethyl-pyridin-3-ylamino)-pyrimidin-4-yl]-nicotinonitrile] | < 1000 nM | < 1000 nM | – | –
21 | N#Cc1nc(-c2ccnc(Nc3ccc(CN4CCOCC4)nc3)n2)ccc1N1CC[C@H](F)C1 [DMX-143, 3-((S)-3-Fluoro-pyrrolidin-1-yl)-6-[2-(6-morpholin-4-ylmethyl-pyridin-3-ylamino)-pyrimidin-4-yl]-pyridine-2-carbonitrile] | < 15 nM | < 15 nM | – | –
